The values that follow come from patent publication US9763445B2, “Safened herbicidal compositions comprising a pyridine carboxylic acid herbicide” (Dow AgroSciences, LLC, priority 2014, dated 2017).

One data set deals with spring barley (HORVS). The data set can be described thus: Postemergence greenhouse trial, % visual injury on spring barley. The note with it: HORVS. Type of data set: in vivo, Hordeum vulgare. As to the method:
(§1) Seeds of the desired test plant species were planted in Sun Gro MetroMix® 306 planting mixture, which typically has a pH of 6.0 to 6.8 and an organic matter content of about 30 percent, in plastic pots with a surface area of 103.2 square centimeters (cm^2). When required to ensure good germination and healthy plants, a fungicide treatment and/or other chemical or physical treatment was applied. The plants were grown for 7-36 days (d) in a greenhouse with an approximate 14-hour (h) photoperiod which was maintained at about 23° C. during the day and 22° C. during the night. Nutrients and water were added on a regular basis and supplemental lighting was provided with overhead metal halide 1000-Watt lamps as necessary. The plants were employed for testing when they reached the second or third true leaf stage.
(§2) Weighed amounts of technical material were dissolved in a volume of 97:3 volume per volume (v/v) acetone/dimethyl sulfoxide (DMSO) to stock solutions. […] The concentrated stock solutions were diluted with an aqueous mixture of 1.5% v/v of Agri-dex crop oil concentrate to provide the appropriate application rates. Compound requirements are based upon a 12 milliliter (mL) application volume at a rate of 187 liters per hectare (L/ha). Stocks solutions of the safeners were prepared following the same procedure. Spray solutions of the safeners and experimental compound mixtures were prepared by adding the stock solutions to the appropriate amount of dilution solution to form a 12 mL spray solution in two-way combinations. Formulated compounds were applied to the plant material with an overhead Mandel track sprayer equipped with 8002E nozzles calibrated to deliver 187 L/ha over an application area of 0.503 square meters (m^2) at a spray height of 18 inches (43 centimeters (cm)) above average plant canopy. Control plants were sprayed in the same manner with the solvent blank. All herbicide application (component a) rates are in g ae/ha and all safener (component b) rates are in g ai/ha.
(§3) The treated plants and control plants were placed in a greenhouse as described above and watered by sub-irrigation to prevent wash-off of the test compounds. After 20-22 d, the condition of the test plants as compared with that of the control plants was determined visually and scored on a scale of 0 to 100 percent where 0 corresponds to no injury and 100 corresponds to complete kill. The condition of the test plants was compared with that of the control plants as determined visually and scored on a scale of 0 to 100 percent, where 0 corresponds to no injury and 100 corresponds to complete kill. Colby's equation was used to determine the herbicidal effects expected from the mixtures.
The safener cloquintocet-mexyl was combined with compound 1, compound 2, compound 3, compound 7, compound 8, compound 9, compound 10, compound 11, compound 12, compound 13, compound 14, compound 15, compound 16, compound 17, compound 18, compound 19, and compound 20, and applied to spring wheat (TRZAS), winter wheat (TRZAW), and spring barley (HORVS) and the phytotoxicity of the herbicidal compositions was measured. […]

A further data set deals with kochia (KCHSC). The experiment in a line: Postemergence greenhouse trial, % visual injury on kochia. Type of data set: in vivo, Kochia scoparia. The note with it: KCHSC; for % visual injury, Ob: CQC-m 0 g/ha. The procedure, abridged: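 Herbicide rates g ae/ha, safener (cloquintocet-mexyl) rates g ai/ha; spray carrier 1.5% v/v crop oil concentrate, 187 L/ha, 2nd–3rd leaf stage. Rating: visual % injury at 20-22 d.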

For data set [1], the system named is bird's-eye speedwell (VERPE). The experiment in a line: Postemergence greenhouse trial, % visual injury on bird's-eye speedwell. Type of data set: in vivo, Veronica persica. The note with it: VERPE; for % visual injury, Ob: CQC-m 0 g/ha. As to the method: as §1, §2
as §3, with “mixtures. […]” for “mixtures.”

The test system of another data set is thistle (CIRAR). The data set can be described thus: Postemergence greenhouse trial, % visual injury on thistle. The data set is classed as in vivo, Cirsium arvense. The note with it: Cirsium arvense, post-emergence, CIRAR, applied alone, read-out: % visual injury, Ob. As to the method:
as §1, §2, §3
The safener cloquintocet-mexyl was combined with compound 1, compound 2, compound 4, compound 5, and compound 6, and applied to corn/maize (ZEAMX) and spring wheat (TRZAS) and the phytotoxicity of the herbicidal compositions was measured. In addition, the efficacy of the herbicidal composition on velvetleaf (ABUTH, Abutilon theophrasti), pigweed (AMARE, Amaranthus retroflexus), winter rape (BRSNW, Brassica napus), lambsquarters (CHEAL, Chenopodium album), thistle (CIRAR, Cirsium arvense), nutsedge (CYPES, Cyperus esculentus), poinsettia (EPHHL, Euphorbia heterophylla), wild buckwheat (POLCO, Polygonum convolvulus), giant foxtail (SETFA, Setaria faberi), and chickweed (STEME, Stellaria media) was evaluated. […]

The test system of a further data set is winter rape (BRSNW). The experiment in a line: Postemergence greenhouse trial, % visual injury on winter rape. Type of data set: in vivo, Brassica napus. The following applies: BRSNW, CQC-m 0 g/ha. The procedure, abridged: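 Visual injury, 0 (none) to 100 (complete kill), rated 20-22 d after overhead track-sprayer application at 187 L/ha; Colby's equation gave expected mixture responses. Herbicide (g ae/ha) and cloquintocet-mexyl safener (g ai/ha) diluted in aqueous 1.5% v/v Agri-dex, applied to weeds at 2–3 true leaves.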

The mark [2] stands for this setting: compound 8 4.380 + CQC-m 0 g/ha.

On to `COC(=O)c1nc(-c2ccc3cc[nH]c3c2F)c(F)c(N)c1Cl` [compound 8], for which the “% visual injury, observed (Ob)” value stood at 12% in the data set on spring barley (HORVS) (setting [2]); 18% with spring barley (HORVS) (compound 8 8.75 + CQC-m 0 g/ha); 31% in the data set on spring barley (HORVS) (compound 8 17.5 + CQC-m 0 g/ha); 43% with spring barley (HORVS) (compound 8 35 + CQC-m 0 g/ha); 53% in the data set on spring barley (HORVS) (compound 8 70 + CQC-m 0 g/ha); 69% with kochia (KCHSC) (setting [2]). The “% visual injury, observed (Ob)” value in the data set on kochia (KCHSC) (compound 8 8.75 + CQC-m 0 g/ha) was found to be 77%; in the data set on kochia (KCHSC) (compound 8 17.5 + CQC-m 0 g/ha) it was 81%; in the data set on kochia (KCHSC) (compound 8 35 + CQC-m 0 g/ha) it was 95%; in the data set with kochia (KCHSC) (compound 8 70 + CQC-m 0 g/ha), 95%; in data set [1] (setting [2]), 83%; in data set [1] (compound 8 8.75 + CQC-m 0 g/ha) it was 92%. The “% visual injury, observed (Ob)” value in data set [1] (compound 8 17.5 + CQC-m 0 g/ha) was 96%; in data set [1] (compound 8 35 + CQC-m 0 g/ha), 98%; in data set [1] (compound 8 70 + CQC-m 0 g/ha), 100%.
As for `Nc1c(F)c(-c2ccc3ccoc3c2)nc(C(=O)O)c1Cl` [compound 20], the “% visual injury, Ob” value with spring barley (HORVS) (4.375 g/ha, applied alone) is 0%; in the data set with spring barley (HORVS) (8.75 g/ha, applied alone), 10%; with spring barley (HORVS) (17.5 g/ha, applied alone), 20%; with spring barley (HORVS) (35 g/ha, applied alone), 30%; in the data set with spring barley (HORVS) (70 g/ha, applied alone) it was 40%. The pest or weed control at 4.375 g/ha in the data set on thistle (CIRAR) (4.375 g/ha) came out at 0%; in the data set with kochia (KCHSC) (Bassia scoparia, post-emergence, 4.375 g/ha, applied alone, read-out: % visual injury, Ob), 70%. The pest or weed control at 8.75 g/ha with thistle (CIRAR) (8.75 g/ha) stood at 10%; in the data set with kochia (KCHSC) (Bassia scoparia, post-emergence, 8.75 g/ha, applied alone, read-out: % visual injury, Ob), 80%. The pest or weed control at 17.5 g/ha in the data set on thistle (CIRAR) (17.5 g/ha) is 20%; in the data set with kochia (KCHSC) (Bassia scoparia, post-emergence, 17.5 g/ha, applied alone, read-out: % visual injury, Ob), 85%. The pest or weed control at 35 g/ha is 40% in the data set on thistle (CIRAR) (35 g/ha) and 90% in the data set on kochia (KCHSC) (Bassia scoparia, post-emergence, 35 g/ha, applied alone, read-out: % visual injury, Ob). Also, the pest or weed control at 70 g/ha was found to be 70% in the data set on thistle (CIRAR) (70 g/ha) and 95% in the data set on kochia (KCHSC) (Bassia scoparia, post-emergence, 70 g/ha, applied alone, read-out: % visual injury, Ob).
Take `COc1c(C(=O)O)nc(-c2ccc3cc[nH]c3c2F)c(F)c1N` [compound 13]: the “% visual injury, Ob” value in the data set with spring barley (HORVS) (compound 4.375 g/ha, CQC-m 0 g/ha) is reported as 30%; in the data set with spring barley (HORVS) (compound 8.75 g/ha, CQC-m 0 g/ha), 38%; with spring barley (HORVS) (compound 17.5 g/ha, CQC-m 0 g/ha), 55%; with spring barley (HORVS) (compound 35 g/ha, CQC-m 0 g/ha) it was 64%; in the data set with spring barley (HORVS) (compound 70 g/ha, CQC-m 0 g/ha) it was 73%; with kochia (KCHSC) (compound 4.375 g/ha), 55%. Besides, the “% visual injury, Ob” value with kochia (KCHSC) (compound 8.75 g/ha) is on record as 84%; with kochia (KCHSC) (compound 17.5 g/ha) it was 89%; in the data set with kochia (KCHSC) (compound 35 g/ha), 92%; in the data set on kochia (KCHSC) (compound 70 g/ha), 93%; in the data set with winter rape (BRSNW) (compound 4.375 g/ha), 100%; in the data set on winter rape (BRSNW) (compound 8.75 g/ha) it was 100%. Further, the “% visual injury, Ob” value in the data set with winter rape (BRSNW) (compound 17.5 g/ha) is reported as 100%; in the data set with winter rape (BRSNW) (compound 35 g/ha), 100%; in the data set on winter rape (BRSNW) (compound 70 g/ha) it was 100%; in data set [1] (compound 4.375 g/ha), 85%; in data set [1] (compound 8.75 g/ha), 93%; in data set [1] (compound 17.5 g/ha) it was 98%. Moreover, the “% visual injury, Ob” value was 98% in data set [1] (compound 35 g/ha) and 100% in data set [1] (compound 70 g/ha).
